Data on 42 compounds can be found in patent US9815832B2 (priority 2013, dated 2017).

Where a name gives a salt, the structure may show the parent alone.

This assay deals with human recombinant PDE4B (Homo sapiens (Human), UniProt Q07343, S133E/S654A/S659A/S661A). To be noted: read-out: Human PDE4B FL.
Chain of human recombinant PDE4B (Q07343 122-736 S133E/S654A/S659A/S661A): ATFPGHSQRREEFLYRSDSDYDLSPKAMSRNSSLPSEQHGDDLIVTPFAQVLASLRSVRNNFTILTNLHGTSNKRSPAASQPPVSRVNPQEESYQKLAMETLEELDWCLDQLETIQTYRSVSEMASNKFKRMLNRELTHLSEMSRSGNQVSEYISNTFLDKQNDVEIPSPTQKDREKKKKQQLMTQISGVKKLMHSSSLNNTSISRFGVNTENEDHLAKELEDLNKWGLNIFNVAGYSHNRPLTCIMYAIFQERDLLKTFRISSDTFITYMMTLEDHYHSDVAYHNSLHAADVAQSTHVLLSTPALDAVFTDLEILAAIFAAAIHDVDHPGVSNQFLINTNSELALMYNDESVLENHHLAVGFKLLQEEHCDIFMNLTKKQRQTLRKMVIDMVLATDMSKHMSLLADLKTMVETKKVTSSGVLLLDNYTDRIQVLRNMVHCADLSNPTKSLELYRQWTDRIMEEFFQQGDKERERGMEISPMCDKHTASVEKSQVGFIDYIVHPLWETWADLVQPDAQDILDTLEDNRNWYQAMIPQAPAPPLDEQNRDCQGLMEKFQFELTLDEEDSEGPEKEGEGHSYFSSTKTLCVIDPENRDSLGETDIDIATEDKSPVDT

Method: Reactions are incubated for 30 min at 25° C. The addition of 20 μL of 8 mg/mL yitrium silicate SPA beads (PerkinElmer) stops the reaction. The plates are sealed (TopSeal, PerkinElmer) and the beads are allowed to settle for 8 hrs, after which they are read on the Trilux Microbeta overnight.

As for `COc1ccc(-n2c(C(=O)NC3CC3)nc3cccnc32)cc1OC` [Example 87, N-Cyclopropyl-3-(3,4-dimethoxyphenyl)-3H-imidazo[4,5-b]pyridine-2-carboxamide], the IC50 stood at 2720 nM.
The figure for `Cc1ccc(-n2c(C(=O)NC3CC3)nc3cccnc32)c(Cl)c1` [Example 88, 3-(2-Chloro-4-methylphenyl)-N-cyclopropyl-3H-imidazo[4,5-b]pyridine-2-carboxamide] is 3700 nM; for `O=C(NC1CC1)c1nc2cccnc2n1-c1cc(Cl)cc(Cl)c1` [Example 63, N-Cyclopropyl-3-(3,5-dichlorophenyl)-3H-imidazo[4,5-b]pyridine-2-carboxamide] it is 68 nM; for `O=C(NC1CC1)c1nc2cccnc2n1-c1ccc2ncsc2c1` [Example 71, 3-(1,3-Benzothiazol-6-yl)-N-cyclopropyl-3H-imidazo[4,5-b]pyridine-2-carboxamide] it is 155 nM.
Take `Cc1cc(Cl)ccc1-n1c(C(=O)N2CC(F)C2)nc2cccnc21` [Example 35, [3-(4-Chloro-2-methylphenyl)-3H-imidazo[4,5-b]pyridin-2-yl](3-fluoroazetidin-1-yl)methanone]: the IC50 worked out at 1130 nM.
As for `Cc1nc2ccc(-n3c(C(=O)NC4CC4)nc4cccnc43)cc2s1` [Example 73, N-Cyclopropyl-3-(2-methyl-1,3-benzothiazol-6-yl)-3H-imidazo[4,5-b]pyridine-2-carboxamide], the IC50 was determined as 516 nM.
As for `COc1cc(-n2c(C(=O)NC3CC3)nc3cccnc32)ccc1C` [Example 50, N-Cyclopropyl-3-(3-methoxy-4-methylphenyl)-3H-imidazo[4,5-b]pyridine-2-carboxamide], the figure is 339 nM; as for `Cc1ccc(-n2c(C(=O)NC3CC3)nc3cccnc32)c(F)c1` [Example 67, N-Cyclopropyl-3-(2-fluoro-4-methylphenyl)-3H-imidazo[4,5-b]pyridine-2-carboxamide], 619 nM.
Take `O=C(NC1CC1)c1nc2cccnc2n1-c1ccc2ncccc2c1` [Example 80, N-Cyclopropyl-3-(quinolin-6-yl)-3H-imidazo[4,5-b]pyridine-2-carboxamide, trifluoroacetate salt]: the IC50 turned out to be 1470 nM.
As for `O=C(NC1CC1)c1nc2cccnc2n1-c1ccc(F)cc1F` [Example 43, N-Cyclopropyl-3-(2,4-difluorophenyl)-3H-imidazo[4,5-b]pyridine-2-carboxamide], the figure is 927 nM; as for `COc1cncc(-n2c(C(=O)NC3CC3)nc3cccnc32)c1` [Example 83, N-Cyclopropyl-3-(5-methoxypyridin-3-yl)-3H-imidazo[4,5-b]pyridine-2-carboxamide], 13600 nM.
As for `O=C(NC1CC1)c1nc2cccnc2n1C1CCOCC1` [Example 15, N-Cyclopropyl-3-(tetrahydro-2H-pyran-4-yl)-3H-imidazo[4,5-b]pyridine-2-carboxamide], the figure is 1730 nM.
As for `O=C(c1nc2cccnc2n1-c1cncc(Cl)c1)N1CCC1` [Example 38, Azetidin-1-yl[3-(5-chloropyridin-3-yl)-3H-imidazo[4,5-b]pyridin-2-yl]methanone], the figure is 466 nM; as for `Cc1ccc(-n2c(C(=O)N3CCC3)nc3cccnc32)cc1F` [Example 18, Azetidin-1-yl[3-(3-fluoro-4-methylphenyl)-3H-imidazo[4,5-b]pyridin-2-yl]methanone], 48.7 nM.
Turning to `O=C(c1nc2cccnc2n1-c1cc(F)c(Cl)cc1F)N1CCC1` [Example 12, Azetidin-1-yl[3-(4-chloro-2,5-difluorophenyl)-3H-imidazo[4,5-b]pyridin-2-yl]methanone, trifluoroacetate salt], the IC50 came out at 99.4 nM.
The figure for `CCCNC(=O)c1nc2cccnc2n1-c1ccc(Cl)cc1` [Example 13, 3-(4-Chlorophenyl)-N-propyl-3H-imidazo[4,5-b]pyridine-2-carboxamide] is 944 nM.
Take `Cc1cc(F)ccc1-n1c(C(=O)NC2CC2)nc2cccnc21` [Example 60, N-Cyclopropyl-3-(4-fluoro-2-methylphenyl)-3H-imidazo[4,5-b]pyridine-2-carboxamide]: the IC50 came out at 1200 nM.
Consider `Cn1ccc(NC(=O)c2nc3cccnc3n2C2CCCC2)n1` [Example 14, 3-Cyclopentyl-N-(1-methyl-1H-pyrazol-3-yl)-3H-imidazo[4,5-b]pyridine-2-carboxamide], for which the IC50 turned out to be 822 nM.
Regarding `O=C(NC1CC1)c1nc2cccnc2n1-c1cncc(Cl)c1` [Example 37, 3-(5-Chloropyridin-3-yl)-N-cyclopropyl-3H-imidazo[4,5-b]pyridine-2-carboxamide], the IC50 is 409 nM.
In the case of `O=C(c1nc2cccnc2n1-c1ccc(Cl)cc1)N1CCC1` [Example 16, Azetidin-1-yl[3-(4-chlorophenyl)-3H-imidazo[4,5-b]pyridin-2-yl]methanone], the IC50 turned out to be 196 nM.
As to `Cc1cc(Cl)ccc1-n1c(C(=O)N2CCC2)nc2cccnc21` [Example 34, Azetidin-1-yl[3-(4-chloro-2-methylphenyl)-3H-imidazo[4,5-b]pyridin-2-yl]methanone], the IC50 stood at 399 nM.
Turning to `N#Cc1ccc(-n2c(C(=O)NC3CC3)nc3cccnc32)cc1` [Example 42, 3-(4-Cyanophenyl)-N-cyclopropyl-3H-imidazo[4,5-b]pyridine-2-carboxamide], the IC50 came to 276 nM.
On to `O=C(NC1CC1)c1nc2cccnc2n1-c1cc(F)c(F)c(F)c1` [Example 30, N-Cyclopropyl-3-(3,4,5-trifluorophenyl)-3H-imidazo[4,5-b]pyridine-2-carboxamide, trifluoroacetate salt], for which the IC50 stood at 5.77 nM.
The figure for `N#Cc1cccc(-n2c(C(=O)NC3CC3)nc3cccnc32)c1` [Example 53, 3-(3-Cyanophenyl)-N-cyclopropyl-3H-imidazo[4,5-b]pyridine-2-carboxamide] is 287 nM; for `Cc1ccc(Cl)c(-n2c(C(=O)NC3CC3)nc3cccnc32)c1` [Example 91, 3-(2-Chloro-5-methylphenyl)-N-cyclopropyl-3H-imidazo[4,5-b]pyridine-2-carboxamide] it is 9420 nM.
With `O=C(NC1CC1)c1nc2cccnc2n1-c1ccc2c(c1)COC2` [Example 61, N-Cyclopropyl-3-(1,3-dihydro-2-benzofuran-5-yl)-3H-imidazo[4,5-b]pyridine-2-carboxamide], the IC50 came to 1580 nM.
The figure for `N#Cc1c(F)cc(-n2c(C(=O)NC3CC3)nc3cccnc32)cc1F` [Example 20, 3-(4-Cyano-3,5-difluorophenyl)-N-cyclopropyl-3H-imidazo[4,5-b]pyridine-2-carboxamide] is 13.8 nM; for `COc1cc(-n2c(C(=O)NC3CC3)nc3cccnc32)ccc1F` [Example 55, N-Cyclopropyl-3-(4-fluoro-3-methoxyphenyl)-3H-imidazo[4,5-b]pyridine-2-carboxamide] it is 304 nM.
The figure for `O=C(NC1CC1)c1nc2cccnc2n1-c1ccc(Cl)cc1F` [Example 23, 3-(4-Chloro-2-fluorophenyl)-N-cyclopropyl-3H-imidazo[4,5-b]pyridine-2-carboxamide] is 632 nM; for `O=C(NC1CC1)c1nc2cccnc2n1-c1cc(F)ccc1Cl` [Example 90, 3-(2-Chloro-5-fluorophenyl)-N-cyclopropyl-3H-imidazo[4,5-b]pyridine-2-carboxamide] it is 9230 nM; for `O=C(c1nc2cccnc2n1-c1ccc(Cl)c(F)c1)N1CC(F)C1` [Example 21, [3-(4-Chloro-3-fluorophenyl)-3H-imidazo[4,5-b]pyridin-2-yl](3-fluoroazetidin-1-yl)methanone] it is 42.6 nM.
`NC(=O)c1nc2cccnc2n1-c1ccc(Cl)c(F)c1` [Example 17, 3-(4-Chloro-3-fluorophenyl)-3H-imidazo[4,5-b]pyridine-2-carboxamide]: the IC50 is 8510 nM.
The figure for `Cn1ccc(NC(=O)c2nc3cccnc3n2-c2ccc(Cl)cc2)n1` [Example 24, 3-(4-Chlorophenyl)-N-(1-methyl-1H-pyrazol-3-yl)-3H-imidazo[4,5-b]pyridine-2-carboxamide] is 211 nM; for `O=C(NC1CC1)c1nc2cccnc2n1-c1ccnc(C(F)(F)F)c1` [Example 82, N-Cyclopropyl-3-[2-(trifluoromethyl)pyridin-4-yl]-3H-imidazo[4,5-b]pyridine-2-carboxamide] it is 6070 nM; for `COc1ccc(-n2c(C(=O)NC3CC3)nc3cccnc32)c(C)c1` [Example 89, N-Cyclopropyl-3-(4-methoxy-2-methylphenyl)-3H-imidazo[4,5-b]pyridine-2-carboxamide] it is 3520 nM.
Consider `O=C(NC1CC1)c1nc2cccnc2n1-c1cccc(F)c1` [Example 65, N-Cyclopropyl-3-(3-fluorophenyl)-3H-imidazo[4,5-b]pyridine-2-carboxamide], for which the IC50 worked out at 188 nM.
The figure for `Cc1ccc(-n2c(C(=O)NC3CC3)nc3cccnc32)cc1` [Example 29, N-Cyclopropyl-3-(4-methylphenyl)-3H-imidazo[4,5-b]pyridine-2-carboxamide] is 225 nM.
The figure for `Cc1cc(C)cc(-n2c(C(=O)NC3CC3)nc3cccnc32)c1` [Example 76, N-Cyclopropyl-3-(3,5-dimethylphenyl)-3H-imidazo[4,5-b]pyridine-2-carboxamide] is 374 nM; for `O=C(NC1CC1)c1nc2cccnc2n1-c1cccc(Cl)c1F` [Example 78, 3-(3-Chloro-2-fluorophenyl)-N-cyclopropyl-3H-imidazo[4,5-b]pyridine-2-carboxamide, trifluoroacetate salt] it is 387 nM.
For `Cc1cccc(-n2c(C(=O)NC3CC3)nc3cccnc32)c1` [Example 70, N-Cyclopropyl-3-(3-methylphenyl)-3H-imidazo[4,5-b]pyridine-2-carboxamide], the IC50 was 421 nM.
In the case of `CCCNC(=O)c1nc2cccnc2n1-c1ccc(Cl)c(F)c1` [Example 6, 3-(4-Chloro-3-fluorophenyl)-N-propyl-3H-imidazo[4,5-b]pyridine-2-carboxamide], the IC50 was found to be 38.1 nM.
The figure for `COc1ccc(-n2c(C(=O)NC3CC3)nc3cccnc32)cc1` [Example 58, N-Cyclopropyl-3-(4-methoxyphenyl)-3H-imidazo[4,5-b]pyridine-2-carboxamide] is 506 nM.
